Results from ChEMBL document CHEMBL3044799, “Biological activity of the succinate dehydrogenase inhibitor fluopyram against Botrytis cinerea and fungal baseline sensitivity” (Pest Manag Sci, 2012).
≈ marks a conversion by molar mass, not a printed value. Calls of active or inactive are those of the source. No cut-off for these calls is given here.

Experiments:
[1] = system: Botrytis cinerea; assay: Antifungal activity against Botryotinia fuckeliana grown on YBA agar assessed as inhibition of germ tube growth at 1 ug/ml after 10 days; type: functional, organism-based
[2] = system: Botrytis cinerea; assay: Protective antifungal activity against Botryotinia fuckeliana inoculated in fungicide-applied strawberry fruit assessed as disease control efficacy at 1 ug AI/ml applied 48 hr prior inoculation relative to control; type: functional
[3] = system: Botrytis cinerea; assay: Curative antifungal activity against Botryotinia fuckeliana inoculated in strawberry fruit assessed as disease severity measuring lesion diameter at 10 ug AI/ml applied 24 hr post-inoculation; type: functional
[4] = system: Botrytis cinerea; assay: Protective antifungal activity against Botryotinia fuckeliana inoculated in fungicide-applied strawberry fruit assessed as disease severity measuring lesion diameter at 10 ug AI/ml applied 24 hr prior inoculation; type: functional
[5] = system: Botrytis cinerea; assay: Curative antifungal activity against Botryotinia fuckeliana inoculated in strawberry fruit assessed as disease control efficacy at 10 ug AI/ml applied 96 hr post-inoculation relative to control; type: functional
[6] = system: Botrytis cinerea; assay: Antifungal activity against Botryotinia fuckeliana grown on water agar assessed as inhibition of spore germination at 1 ug/ml after 10 days; type: functional, organism-based
[7] = system: Botrytis cinerea; assay: Protective antifungal activity against Botryotinia fuckeliana inoculated in fungicide-applied strawberry fruit assessed as disease severity measuring lesion diameter at 100 ug AI/ml applied 96 hr prior-inoculation; type: functional
[8] = system: Botrytis cinerea; assay: Curative antifungal activity against Botryotinia fuckeliana inoculated in strawberry fruit assessed as disease control efficacy at 1 ug AI/ml applied 24 hr post-inoculation relative to control; type: functional
[9] = system: Botrytis cinerea; assay: Curative antifungal activity against Botryotinia fuckeliana inoculated in strawberry fruit assessed as disease severity measuring lesion diameter at 1 ug AI/ml applied 24 hr post-inoculation; type: functional
[10] = system: Botrytis cinerea; assay: Protective antifungal activity against Botryotinia fuckeliana inoculated in fungicide-applied strawberry fruit assessed as disease control efficacy at 1 ug AI/ml applied 24 hr prior inoculation relative to control; type: functional
[11] = system: Botrytis cinerea; assay: Antifungal activity against Botryotinia fuckeliana assessed as inhibition of spore germination at 0.001 to 10 ug/ml after 10 days; type: functional, organism-based
[12] = system: Botrytis cinerea; assay: Protective antifungal activity against Botryotinia fuckeliana inoculated in fungicide-applied strawberry fruit assessed as disease severity measuring lesion diameter at 50 ug AI/ml applied 24 hr prior inoculation; type: functional
[13] = system: Botrytis cinerea; assay: Antifungal activity against Botryotinia fuckeliana obtained from cucumber isolate assessed as inhibition of spore germ tube growth; type: functional, organism-based
[14] = system: Botrytis cinerea; assay: Curative antifungal activity against Botryotinia fuckeliana inoculated in strawberry fruit assessed as disease severity measuring lesion diameter at 1 ug AI/ml applied 48 hr post-inoculation; type: functional
[15] = system: Botrytis cinerea; assay: Protective antifungal activity against Botryotinia fuckeliana inoculated in fungicide-applied strawberry fruit assessed as disease control efficacy at 1 ug AI/ml applied 96 hr prior-inoculation relative to control; type: functional
[16] = system: Botrytis cinerea; assay: Protective antifungal activity against Botryotinia fuckeliana inoculated in fungicide-applied strawberry fruit assessed as disease control efficacy at 10 ug AI/ml applied 24 hr prior inoculation relative to control; type: functional
[17] = system: Botrytis cinerea; assay: Curative antifungal activity against Botryotinia fuckeliana inoculated in strawberry fruit assessed as disease control efficacy at 10 ug AI/ml applied 24 hr post-inoculation relative to control; type: functional
[18] = system: Botrytis cinerea; assay: Curative antifungal activity against Botryotinia fuckeliana inoculated in strawberry fruit assessed as disease severity measuring lesion diameter at 50 ug AI/ml applied 24 hr post-inoculation; type: functional
[19] = system: Botrytis cinerea; assay: Curative antifungal activity against Botryotinia fuckeliana inoculated in strawberry fruit assessed as disease control efficacy at 100 ug AI/ml applied 24 hr post-inoculation relative to control; type: functional
[20] = system: Botrytis cinerea; assay: Protective antifungal activity against Botryotinia fuckeliana inoculated in fungicide-applied strawberry fruit assessed as disease severity measuring lesion diameter at 10 ug AI/ml applied 96 hr prior-inoculation; type: functional
[21] = system: Botrytis cinerea; assay: Protective antifungal activity against Botryotinia fuckeliana inoculated in fungicide-applied strawberry fruit assessed as disease control efficacy at 100 ug AI/ml applied 24 hr prior inoculation relative to control; type: functional
[22] = system: Botrytis cinerea; assay: Curative antifungal activity against Botryotinia fuckeliana inoculated in strawberry fruit assessed as disease control efficacy at 50 ug AI/ml applied 96 hr post-inoculation relative to control; type: functional
[23] = system: Botrytis cinerea; assay: Antifungal activity against Botryotinia fuckeliana assessed as inhibition of germ tube growth at 0.001 to 10 ug/ml after 10 days; type: functional, organism-based
[24] = system: Botrytis cinerea; assay: Curative antifungal activity against Botryotinia fuckeliana inoculated in strawberry fruit assessed as disease severity measuring lesion diameter at 50 ug AI/ml applied 48 hr post-inoculation; type: functional
[25] = system: Botrytis cinerea; assay: Protective antifungal activity against Botryotinia fuckeliana inoculated in fungicide-applied strawberry fruit assessed as disease control efficacy at 50 ug AI/ml applied 48 hr prior inoculation relative to control; type: functional
[26] = system: Botrytis cinerea; assay: Antifungal activity against Botryotinia fuckeliana grown on water agar assessed as inhibition of germ tube growth at 1 ug/ml after 10 days; type: functional, organism-based
[27] = system: Botrytis cinerea; assay: Curative antifungal activity against Botryotinia fuckeliana inoculated in strawberry fruit assessed as disease severity measuring lesion diameter at 1 ug AI/ml applied 96 hr post-inoculation; type: functional
[28] = system: Botrytis cinerea; assay: Antifungal activity against Botryotinia fuckeliana grown on succinate medium assessed as inhibition of germ tube growth at 5 ug/ml after 10 days; type: functional, organism-based
[29] = system: Botrytis cinerea; assay: Curative antifungal activity against Botryotinia fuckeliana inoculated in strawberry fruit assessed as disease severity measuring lesion diameter at 100 ug AI/ml applied 48 hr post-inoculation; type: functional
[30] = system: Botrytis cinerea; assay: Antifungal activity against Botryotinia fuckeliana grown on PDA medium assessed as inhibition of mycelial growth at 10 ug/ml after 10 days; type: functional, organism-based
[31] = system: Botrytis cinerea; assay: Antifungal activity against Botryotinia fuckeliana grown on YBA agar assessed as inhibition of mycelial growth at 5 ug/ml after 10 days; type: functional, organism-based
[32] = system: Botrytis cinerea; assay: Protective antifungal activity against Botryotinia fuckeliana inoculated in fungicide-applied strawberry fruit assessed as disease severity measuring lesion diameter at 1 ug AI/ml applied 48 hr prior inoculation; type: functional
[33] = system: Botrytis cinerea; assay: Protective antifungal activity against Botryotinia fuckeliana inoculated in fungicide-applied strawberry fruit assessed as disease severity measuring lesion diameter at 1 ug AI/ml applied 96 hr prior-inoculation; type: functional
[34] = system: Botrytis cinerea; assay: Curative antifungal activity against Botryotinia fuckeliana inoculated in strawberry fruit assessed as disease control efficacy at 100 ug AI/ml applied 48 hr post-inoculation relative to control; type: functional
[35] = system: Botrytis cinerea; assay: Protective antifungal activity against Botryotinia fuckeliana inoculated in fungicide-applied strawberry fruit assessed as disease control efficacy at 100 ug AI/ml applied 48 hr prior inoculation relative to control; type: functional
[36] = system: Botrytis cinerea; assay: Antifungal activity against Botryotinia fuckeliana grown on succinate medium assessed as inhibition of spore germination at 5 ug/ml after 10 days; type: functional, organism-based
[37] = system: Botrytis cinerea; assay: Protective antifungal activity against Botryotinia fuckeliana inoculated in fungicide-applied strawberry fruit assessed as disease severity measuring lesion diameter at 50 ug AI/ml applied 48 hr prior inoculation; type: functional
[38] = system: Botrytis cinerea; assay: Protective antifungal activity against Botryotinia fuckeliana inoculated in fungicide-applied strawberry fruit assessed as disease control efficacy at 50 ug AI/ml applied 96 hr prior-inoculation relative to control; type: functional
[39] = system: Botrytis cinerea; assay: Curative antifungal activity against Botryotinia fuckeliana inoculated in strawberry fruit assessed as disease control efficacy at 100 ug AI/ml applied 96 hr post-inoculation relative to control; type: functional

For `O=C(NCCc1ncc(C(F)(F)F)cc1Cl)c1ccccc1C(F)(F)F` [FLUOPYRAM], the “growth inhibition (GI)” value [1] was “Active”, the Efficacy [2] was 54.3% and the Activity [3] was 5.7 mm. The Activity [4] was 4.2 mm, the Efficacy [5] was 41.1% and the “growth inhibition (GI)” value [6] was “Active”. The Activity [7] was 0.7 mm, the Efficacy [8] was 53% and the Activity [9] was 8.8 mm. The Efficacy [10] was 66.4%, the “growth inhibition (GI)” value [11] was “Active” and the Activity [12] was 1.1 mm. For the same compound, the EC50 [13] was 0.1 µg/mL (≈ 0.252 µM), the Activity [14] was 6.9 mm and the Efficacy [15] was 53.6%. The Efficacy [16] was 77.2%, the Efficacy [17] was 69.7% and the Activity [18] was 4.2 mm. For the same compound, the Efficacy [19] was 79.3%, the Activity [20] was 4.2 mm and the Efficacy [21] was 100%. For the same compound, the Efficacy [22] was 45.1%, the “growth inhibition (GI)” value [23] was “Active” and the Activity [24] was 3.2 mm. The Efficacy [25] was 87.7%, the “growth inhibition (GI)” value [26] was “Active” and the Activity [27] was 11.8 mm. For the same compound, the “growth inhibition (GI)” value [28] was “Active”, the Activity [29] was 1.4 mm and the “growth inhibition (GI)” value [30] was “inactive”. For the same compound, the “growth inhibition (GI)” value [31] was “Active”, the Activity [32] was 8.6 mm and the Activity [33] was 8.7 mm. For the same compound, the Efficacy [34] was 92.2%, the Efficacy [35] was 95.9% and the “growth inhibition (GI)” value [36] was “Active”. The Activity [37] was 2.3 mm, the Efficacy [38] was 79.2% and the Efficacy [39] was 62.5%.
